Key:
Assay in all cases: relative viability (nuclei count vs DMSO), 5 days (fraction); higher = more cells survive
Crizotinib + Pemetrexed = compound: C[C@@H](Oc1cc(-c2cnn(C3CCNCC3)c2)cnc1N)c1c(Cl)ccc(F)c1Cl [Crizotinib] + Nc1nc2[nH]cc(CCc3ccc(C(=O)N[C@@H](CCC(=O)O)C(=O)O)cc3)c2c(=O)[nH]1 [Pemetrexed] (partner 0.2 µM)
Method in brief: (§1)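 Values are medians from duplicate plates. Each reflects relative viability, defined as the nuclei count of treated wells over that of vehicle wells. Lung cancer cell lines in 1536-well plates were pin-tool dosed one day after seeding with one drug alone or with a fixed anchor-drug dose plus five library-drug doses (not always all listed) in √10 steps, then fixed, stained and imaged at 4× after 5 days.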

Crizotinib + Lapatinib = compound: C[C@@H](Oc1cc(-c2cnn(C3CCNCC3)c2)cnc1N)c1c(Cl)ccc(F)c1Cl [Crizotinib] + CS(=O)(=O)CCNCc1ccc(-c2ccc3ncnc(Nc4ccc(OCc5cccc(F)c5)c(Cl)c4)c3c2)o1 [Lapatinib] (partner 2 µM)
Method in brief: as §1

Crizotinib + Luminespib = compound: C[C@@H](Oc1cc(-c2cnn(C3CCNCC3)c2)cnc1N)c1c(Cl)ccc(F)c1Cl [Crizotinib] + CCNC(=O)c1noc(-c2cc(C(C)C)c(O)cc2O)c1-c1ccc(CN2CCOCC2)cc1 [Luminespib] (partner 0.01 µM)
Method in brief: as §1

Crizotinib + Linsitinib = compound: C[C@@H](Oc1cc(-c2cnn(C3CCNCC3)c2)cnc1N)c1c(Cl)ccc(F)c1Cl [Crizotinib] + C[C@]1(O)C[C@@H](c2nc(-c3ccc4ccc(-c5ccccc5)nc4c3)c3c(N)nccn32)C1 [Linsitinib] (partner 1 µM)
Method in brief: as §1

Cell Line	relative viability (Crizotinib + Pemetrexed; first compound 0.01 µM)	relative viability (Crizotinib + Pemetrexed; first compound 0.03162 µM)	relative viability (Crizotinib + Pemetrexed; first compound 0.1 µM)	relative viability (Crizotinib + Pemetrexed; first compound 0.3162 µM)	relative viability (Crizotinib + Pemetrexed; first compound 1 µM)	relative viability (Crizotinib + Lapatinib; first compound 0.01 µM)	relative viability (Crizotinib + Lapatinib; first compound 0.03162 µM)	relative viability (Crizotinib + Lapatinib; first compound 0.1 µM)	relative viability (Crizotinib + Lapatinib; first compound 1 µM)	relative viability (Crizotinib + Luminespib; first compound 0.01 µM)	relative viability (Crizotinib + Luminespib; first compound 0.03162 µM)	relative viability (Crizotinib + Luminespib; first compound 0.1 µM)	relative viability (Crizotinib + Luminespib; first compound 1 µM)	relative viability (Crizotinib + Linsitinib; first compound 0.01 µM)	relative viability (Crizotinib + Linsitinib; first compound 0.03162 µM)	relative viability (Crizotinib + Linsitinib; first compound 0.1 µM)	relative viability (Crizotinib + Linsitinib; first compound 1 µM)	relative viability (Crizotinib + Lapatinib; first compound 0.3162 µM)	relative viability (Crizotinib + Luminespib; first compound 0.3162 µM)	relative viability (Crizotinib + Linsitinib; first compound 0.3162 µM)
NCI-H1915	0.455	0.431	0.506	0.455	0.482	0.902	0.95	1.01	0.969	0.775	0.817	0.721	0.862	1.02	1.09	1.1	1.1	–	–	–
NCI-H1944	0.499	0.614	0.621	0.605	0.652	0.751	0.82	0.767	0.863	0.671	0.648	0.646	0.777	1.11	1.07	1.2	1.21	0.715	0.872	1.18
NCI-H1975	0.296	0.3	0.287	0.301	0.291	0.719	1.01	0.971	0.869	0.144	0.148	0.167	0.178	0.926	1.05	0.91	1.01	0.798	0.223	1.07
NCI-H1993	0.57	0.632	0.503	0.528	0.47	0.687	0.843	0.781	0.707	0.905	0.889	–	–	0.711	0.729	0.71	0.71	0.681	0.852	0.76
NCI-H2009	1.02	1.05	0.974	0.957	0.989	0.845	0.984	0.956	0.93	0.994	1.02	0.988	1.08	1.17	1.17	1.24	1.17	0.812	1.01	1.17
NCI-H2023	0.149	0.226	0.172	0.189	0.209	0.864	0.884	0.71	0.465	0.714	0.754	0.61	0.592	0.734	0.592	0.6	0.515	0.372	0.58	0.486
NCI-H2085	0.808	0.978	0.856	0.749	0.904	0.724	0.899	0.785	0.715	0.551	0.394	0.431	0.428	0.8	1.03	1	0.836	0.709	–	0.926
NCI-H2087	0.725	0.724	0.553	0.702	0.723	0.936	1.07	0.915	1.06	0.18	0.181	0.168	0.134	0.966	0.976	0.942	1.07	0.557	–	0.92
NCI-H2126	0.616	–	0.68	0.659	0.724	0.701	0.763	0.765	0.727	0.717	0.886	–	0.916	0.73	0.724	0.706	0.717	0.763	0.861	0.691
NCI-H2228	0.338	0.324	0.296	0.352	0.317	0.814	0.827	1.06	0.412	0.119	0.16	0.132	0.119	0.629	0.733	0.718	0.328	0.488	0.122	0.371
NCI-H2347	0.387	0.441	0.446	0.457	0.416	0.982	0.902	0.906	0.933	0.212	0.458	0.482	0.404	0.913	–	1.03	0.993	0.888	0.681	–
NCI-H2405	0.875	1.09	1.04	0.993	–	1.05	0.975	0.999	–	0.629	0.706	0.697	0.806	0.885	0.897	0.882	0.919	0.952	0.785	1.04
NCI-H3122	0.192	0.196	0.195	0.182	0.192	0.985	0.891	0.951	0.763	0.119	0.0745	0.0793	0.105	1.02	1.03	1.08	1	0.962	0.0767	1.01
PC-3 [JPC-3]	0.883	1.23	1.19	–	1.05	0.408	0.448	0.446	0.459	0.727	0.649	0.741	0.78	0.935	0.977	1.04	0.973	0.422	0.678	0.9
PC-14	0.124	0.127	0.134	0.143	0.132	0.297	0.339	0.312	0.304	0.156	0.152	0.183	0.168	0.913	–	0.974	1.02	0.304	0.186	0.905
RERF-LC-KJ	0.475	0.459	0.461	0.473	0.517	0.801	0.881	0.853	0.838	1.22	1.31	1.29	1.21	0.972	0.94	–	–	–	1.21	0.935
SK-LU-1	0.887	0.911	0.815	1.02	0.922	0.833	0.953	0.859	–	0.208	0.195	0.225	0.206	1.07	1.12	1.22	1.11	0.889	0.224	1.14

— the supplement of paper PMC10307832
